US8759340B2, “Benzodiazepinone compounds useful in the treatment of skin conditions” (The Regents of the University of Michigan, priority 2007, dated 2014)
“Also recorded” adds a separate entry of the source.

Assays:
Ramos cells = test: Cytotoxicity against Ramos cells; assay type: cell-based; conditions: Homo sapiens, read-out: EC50 in causing death of Ramos cells
Source text: The compounds described herein can be tested for activity against F1F0-ATPase by measuring ATP synthesis and ATP hydrolysis. In addition, the compounds described herein can be evaluated for cytotoxicity against Ramos cells. Inhibition of ATP synthesis and hydrolysis by the F1F0-ATPase and cytotoxicity in Ramos cells can be measured as described in K. M. Johnson et al. in Chemistry & Biology (2005) Vol. 12, pp. 485-496.

[1] = test system: Human Skin Organ Cultures; test: Toxicity (epidermal necrosis) in human skin organ cultures; assay type: cell-based; conditions: necrosis on 0 to 4+ scale, scores ≦1 normal, 8 days organ culture, n=6
Source text: (§1) Replicate 6-mm punch biopsies of full-thickness psoriatic plaque skin were obtained from human skin donors with psoriasis. These biopsies were used in the transplant studies. Six-mm punch biopsies of sun-protected (hip) skin from non-psoriatic donors were obtained as controls. In addition, replicate 2-mm full-thickness punch biopsies of sun-protected hip skin were obtained from normal donors for use in organ culture studies.
(§2) Immediately upon biopsy, the replicate 2-mm punch biopsies (non-psoriatic skin only) were immersed in culture medium consisting of Keratinocyte Basal Medium (KBM) (Lonza, Walkersville, Md.). KBM is a low-Ca^2+, serum-free modification of MCDB-153 medium. It was supplemented with CaCl2 to bring the final Ca^2+ concentration to 1.4 mM. Biopsies were incubated in wells of a 24-well dish containing 400 μl of Ca^2+-supplemented KBM with or without additional treatments (RA and/or Compound H). Cultures were incubated at 37° C. in an atmosphere of 95% air and 5% CO2. Other than to maintain the tissue in a minimal volume of medium, nothing further was done to ensure a strict air-liquid interface. Incubation was for 8 days, with change of medium and fresh treatments provided every second day. At the end of the incubation period, tissue was fixed in 10% buffered formalin and examined histologically after staining with hematoxylin and eosin. Routinely, 3-6 tissue sections were prepared from each block. Epidermal thickness measurements were made at several sites in each tissue section (distance from the dermal-epidermal juncture to the top of the viable portion of the epithelium). The organ culture procedure employed here has been described in the past (Varani et al. (1993) Amer. J. Pathol. 142:189-198; and Varani et al., (1994) J. Clin. Invest. 94:1747-1753). In order to evaluate the toxicity of compound H, tissue was examined histologically and necrosis was assessed on a 0 to 4+ scale, with 0 indicating no change from control and 4+ indicating complete necrosis of the epidermis (n=6). Scores ≦1 were taken as normal.

[2] = test system: RA-induced epidermal hyperplasia; test: Inhibition of RA-induced epidermal hyperplasia in human skin organ cultures; assay type: cell-based; conditions: for Percent Reduction in Retinoid-Induced Hyperplasia (%): reduction in epidermal thickness vs RA alone, n=3
Source text: as §1, §2
The average epidermal thickness in the absence of RA was 70-90 μm, while the average epidermal thickness was 275 μm in cells exposed to RA.

human keratinocytes (KC) = test: Keratinocyte proliferation assay; assay type: cell-based; conditions: Homo sapiens, Keratinocyte; for inhibition at 0.05 µM / inhibition at 0.1 µM / inhibition at 0.5 µM / inhibition at 1 µM / inhibition at 5 µM / inhibition at 10 µM: 48 h, KC, day 2, read-out: Percent Inhibition of Cells Per Concentration of Test Compound
Method: Epidermal keratinocytes were isolated from fresh tissue biopsies as described previously (Varani et al., (1994) J. Clin. Invest. 94:1747-1753). Primary and early passage cells were maintained in Keratinocyte Growth Medium (KGM) (Lonza). KGM contains the same basal medium as KBM but is further supplemented with a mixture of growth factors including 0.1 ng per mL EGF, 0.5 μg per mL insulin, and 0.4% bovine pituitary extract. In addition to using low-passage keratinocytes, we also used the HaCat line of immortalized human epidermal keratinocytes in some experiments. The immortalized keratinocytes were handled exactly as low-passage keratinocytes.
(§3) Keratinocyte proliferation was assessed by seeding 4×10^4 cells per well in a 24-well plate using KGM as culture medium. After the cells had attached (overnight), they were washed and triplicate samples were harvested for zero-time counts. DMSO served as a negative control. Proliferation was measured on day 2 by releasing the cells with trypsin/EDTA and enumerating them using a particle counter (Coulter Electronics, Hialeah, Fla.). Fibroblast proliferation studies were conducted in a similar manner except that […] was used as culture medium.
(§4) KC refers to human keratinocytes. HFF refers to human foreskin fibroblasts. The cLogP values were calculated using ChemDraw™ (CambridgeSoft).

[3] = test system: human foreskin fibroblasts (HFF); test: Fibroblast proliferation assay; assay type: cell-based; conditions: Homo sapiens; for inhibition at 1 µM / inhibition at 0.05 µM / inhibition at 0.1 µM / inhibition at 0.5 µM / inhibition at 5 µM / inhibition at 10 µM: 48 h, HFF, day 2, read-out: Percent Inhibition of Cells Per Concentration of Test Compound
Method: Fibroblasts obtained from the same tissue were grown in monolayer culture using Dulbecco's modified minimal essential medium supplemented with nonessential amino acids and 10% fetal bovine serum (DMEM-FBS) as culture medium. Both keratinocytes and fibroblasts were maintained at 37° C. in an atmosphere of 95% air and 5% CO2. Cells were subcultured by exposure to trypsin/ethylenediamine tetraacetic acid (EDTA) and used at passage 2-4.
as §3, §4

| SMILES | inhibition at 0.05 µM (human keratinocytes (KC)) [%] | inhibition at 0.1 µM (human keratinocytes (KC)) [%] | inhibition at 0.5 µM (human keratinocytes (KC)) [%] | inhibition at 1 µM (human keratinocytes (KC)) [%] | inhibition at 5 µM (human keratinocytes (KC)) [%] | inhibition at 10 µM (human keratinocytes (KC)) [%] | inhibition at 1 µM [3] [%] | inhibition at 0.05 µM ([3]; Fibroblast) [%] | inhibition at 0.1 µM ([3]; Fibroblast) [%] | inhibition at 0.5 µM ([3]; Fibroblast) [%] | inhibition at 5 µM ([3]; Fibroblast) [%] | inhibition at 10 µM ([3]; Fibroblast) [%] | also measured |
| --- | --- | --- | --- | --- | --- | --- | --- | --- | --- | --- | --- | --- | --- |
| Cc1ccccc1CC1N=C(c2ccc(F)cc2)c2cc(Cl)ccc2NC1=O (stereo not drawn) [7-Chloro-5-(4-fluorophenyl)-3-(2-methylbenzyl)-1H-benzo[e][1,4]diazepin-2(3H)-one] |  |  |  |  |  |  |  |  |  |  |  |  | EC50 (Ramos cells): 7900 nM |
| Cc1cccc(C)c1CC1N=C(c2ccc(O)cc2)c2cc(Cl)ccc2N(C)C1=O (stereo not drawn) [Compound 1, (Z)-7-chloro-3-(2,6-dimethylbenzyl)-5-(4-hydroxyphenyl)-1-methyl-1H-benzo[e][1,4]diazepin-2(3H)-one] | < 20 | < 20 | < 20 | ≥ 20 | ≥ 90 | ≥ 90 | < 20 | < 20 | < 20 | < 20 | ≥ 90 | ≥ 90 | Toxicity ([1]; 0.5 μM compound H, listed as Compound H): no detectable toxicity; also recorded: None detected; Toxicity ([1]; 1.0 μM compound H, listed as Compound H): no detectable toxicity; also recorded: None detected; Toxicity ([1]; 2.0 μM compound H, listed as Compound H): 2.0 + 0.5; Toxicity ([1]; 2.0 μM compound H, listed as compound H): Slight toxicity; Percent Reduction in Retinoid-Induced Hyperplasia (%) ([2]; 0.5 μM compound H): 40 + 10%; Percent Reduction in Retinoid-Induced Hyperplasia (%) ([2]; 1.0 μM compound H): 48 + 15%; Percent Reduction in Retinoid-Induced Hyperplasia (%) ([2]; 2.0 μM compound H): >95%; EC50 (human keratinocytes (KC); based on the data from the cell proliferation assays, read-out: EC50 against proliferation of human keratinocyte cells): 700 ± 100 nM; EC50 ([3]; Fibroblast, based on the data from the cell proliferation assays, read-out: EC50 against proliferation of human foreskin fibroblasts): 1400 ± 300 nM |
| CCc1ccc(CC2N=C(c3ccc(F)cc3)c3cc(Cl)ccc3NC2=O)cc1CC (stereo not drawn) [Compound 11, (Z)-7-Chloro-3-(3,4-diethylbenzyl)-5-(4-fluorophenyl)-1H-benzo[e][1,4]diazepin-2(3H)-one] | < 20 | < 20 | < 20 | < 20 | ≥ 90 | ≥ 90 | < 20 | < 20 | < 20 | < 20 | < 20 | ≥ 90 | melting point: 88 to 90 °C |
| CC1=C(/C=C/C(C)=C/C=C/C(C)=C/C(=O)O)C(C)(C)CCC1 [RA, all-trans retinoic acid, reference compound] |  |  |  |  |  |  |  |  |  |  |  |  | average epidermal thickness ([2]; exposed to RA alone, 70-90 μm in the absence of RA): 275 μm |
